Measured values reported in ChEMBL document CHEMBL1141284, “Transdermal penetration behaviour of drugs: CART-clustering, QSPR and selection of model compounds” (Bioorg Med Chem, 2007).

System: Zone of skin
Test: Permeability coefficient in human skin

`CC1(C)O[C@@H]2C[C@H]3[C@@H]4CCC5=CC(=O)C=C[C@]5(C)[C@@]4(F)[C@@H](O)C[C@]3(C)[C@]2(C(=O)CO)O1` [TRIAMCINOLONE ACETONIDE] was tested. Which “log Kp” value did it give?
Its value is -6.99.

`C[C@]12C=CC(=O)C=C1CC[C@H]1[C@@H]3C[C@@H](O)[C@](O)(C(=O)CO)[C@@]3(C)C[C@H](O)[C@@]12F` [TRIAMCINOLONE] was tested. Which “log Kp” value did it give?
The value was -8.95.
